From the supplement of paper PMC11061612

What was measured:
[1] = system: KARPAS-299 (T-Cell Non-Hodgkin's Lymphoma); assay: Bliss excess, mean over the matrix (fraction); higher = more synergy
Summary of the method: (§1)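 Cell lines grown in DMEM/F12 or RPMI with 10% FBS were plated in 1536-well plates and held 24 hours at 37°C, 5% CO2 before 72 hours of exposure to two-drug dose matrices, with DMSO typically at 0.2%. CellTiter-Glo 2.0 luminescence gave viability, which was converted to inhibition. Vehicle wells were set to 0 and blank wells to 1. Combination Emax is the second-highest inhibition in the matrix, and Bliss excess is the observed combination effect minus the expected EA + EB − EA·EB, where EA and EB are the single-agent effects.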

TK10 (Kidney Carcinoma) = assay: as above
Summary of the method: as §1

[2] = system: KYSE-450 (Esophageal Squamous Cell Carcinoma); assay: as above
Summary of the method: as §1

[3] = system: Ca9-22 (Head and Neck Carcinoma); assay: as above
Summary of the method: as §1

D-263MG (Glioblastoma) [4] = assay: as above
Summary of the method: as §1

[5] = system: KARPAS-299 (T-Cell Non-Hodgkin's Lymphoma); assay: combination Emax (second highest fraction inhibited in the dose matrix, 72 h); higher = more inhibition; extreme values may be limits of the assay
Summary of the method: as §1

[6] = system: EoL-1-cell (Acute Myeloid Leukemia); assay: as above
Summary of the method: as §1

YH-13 (Glioblastoma) = assay: as above
Summary of the method: as §1

[7] = system: LU-65 (Non-Small Cell Lung Carcinoma); assay: as above
Summary of the method: as §1

[8] = system: KYSE-450 (Esophageal Squamous Cell Carcinoma); assay: as above
Summary of the method: as §1

[9] = system: RF-48 (B-Cell Non-Hodgkin's Lymphoma); assay: as above
Summary of the method: as §1

[10] = system: Ca9-22 (Head and Neck Carcinoma); assay: as above
Summary of the method: as §1

[11] = system: Hs-766T (Pancreatic Carcinoma); assay: as above
Summary of the method: as §1

[12] = system: AMO-1 (Plasma Cell Myeloma); assay: as above
Summary of the method: as §1

[13] = system: NCI-H358 (Lung Adenocarcinoma); assay: as above
Summary of the method: as §1

EW-24 (Ewing's Sarcoma) = assay: as above
Summary of the method: as §1

TGW (Neuroblastoma) = assay: as above
Summary of the method: as §1

D-263MG (Glioblastoma) [14] = assay: as above
Summary of the method: as §1

[15] = system: NCI-H727 (Other Solid Carcinomas); assay: as above
Summary of the method: as §1

[16] = system: PANC-04-03 (Pancreatic Carcinoma); assay: as above
Summary of the method: as §1
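For Bliss excess, mean over the matrix in this document: after 72 h of two-drug dosing.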

Row | SMILES | Bliss excess [1] | Bliss excess (TK10 (Kidney Carcinoma)) | Bliss excess [2] | Bliss excess [3] | Bliss excess (D-263MG (Glioblastoma) [4]) | combination Emax [5] | combination Emax [6] | combination Emax (YH-13 (Glioblastoma)) | combination Emax [7] | combination Emax [8] | combination Emax [9] | combination Emax [10] | combination Emax [11] | combination Emax [12] | combination Emax [13] | combination Emax (EW-24 (Ewing's Sarcoma)) | combination Emax (TGW (Neuroblastoma)) | combination Emax (D-263MG (Glioblastoma) [14]) | combination Emax [15] | combination Emax [16]
1 | Cc1cc2ncnn2cc1Nc1ncc2c(n1)n(C1CCOCC1)c(=O)n2C [AZD7648] + COc1cc([C@@H]2c3cc4c(cc3[C@@H](O[C@@H]3O[C@@H]5CO[C@@H](C)O[C@H]5[C@H](O)[C@H]3O)[C@H]3COC(=O)[C@H]23)OCO4)cc(OC)c1O [Etoposide] (first compound max 10 µM, 7x7, partner max 10 µM) | 0.0522 | 0.0187 | 0.0385 | 0.141 | 0.0729 | 0.976 | 1 | 0.641 | 0.897 | 0.459 | 0.755 | 0.869 | 0.253 | 0.942 | 0.628 | 0.714 | 0.522 | 0.618 | 0.269 | 0.335
2 | Cc1cc2ncnn2cc1Nc1ncc2c(n1)n(C1CCOCC1)c(=O)n2C [AZD7648] + C[C@@H]1COCCN1C2=NC(=NC(=C2)C3(CC3)[S@](=N)(=O)C)C4=C5C=CNC5=NC=C4 [AZD6738] (first compound max 10 µM, 7x7, partner max 10 µM) | -0.0183 | 0.0062 | 0.0281 | 0.0578 | -0.0206 | 0.927 | 0.967 | 0.656 | 0.656 | 0.593 | 0.528 | 0.919 | 0.636 | 0.862 | 0.606 | 0.61 | 0.739 | 0.647 | 0.545 | 0.522
3 | Cc1cc2ncnn2cc1Nc1ncc2c(n1)n(C1CCOCC1)c(=O)n2C [AZD7648] + O=C(c1cc(Cc2n[nH]c(=O)c3ccccc23)ccc1F)N1CCN(C(=O)C2CC2)CC1 [Olaparib] (first compound max 10 µM, 7x7, partner max 10 µM) | -0.0098 | -0.0843 | -0.0635 | -0.0072 | -0.0367 | 0.151 | 0.42 | 0.16 | 0.312 | 0.0972 | 0.322 | 0.113 | 0.353 | 0.196 | 0.279 | 0.214 | 0.344 | 0.094 | 0.218 | 0.183
4 | Cc1nc(Nc2ncc(C(=O)Nc3c(C)cccc3Cl)s2)cc(N2CCN(CCO)CC2)n1 [Dasatinib] + CC(=O)Nc1cccc(-n2c(=O)n(C3CC3)c(=O)c3c(Nc4ccc(I)cc4F)n(C)c(=O)c(C)c32)c1 [Trametinib] (first compound max 2 µM, 7x7, partner max 1 µM) | 0.0122 | 0.0159 | -0.0101 | 0.0313 | -0.031 | 0.427 | 1 | 0.784 | 0.564 | 0.382 | 0.414 | 0.878 | 0.777 | 0.405 | 0.69 | 0.171 | 0.273 | 0.761 | 0.701 | 0.781
5 | COc1cc2ncnc(Nc3ccc(F)c(Cl)c3)c2cc1OCCCN1CCOCC1 [Gefitinib] + CC(C)n1c(=O)n(C)c2cnc3cc(F)c(-c4ccc(OCCCN5CCCCC5)nc4)cc3c21 [AZD1390] (first compound max 10 µM, 7x7, partner max 0.3 µM) | -0.0218 | -0.0646 | -0.0177 | 0.0579 | -0.0401 | 0.14 | 0.571 | 0.145 | 0.268 | 0.338 | 0.244 | 0.625 | 0.181 | 0.323 | 0.536 | 0.189 | 0.0238 | 0.132 | 0.157 | 0.347
6 | COc1cc2c(cc1OCCCCCOc1cc3c(cc1OC)C(=O)N1C=C(C)C[C@H]1C=N3)N=C[C@@H]1CC(C)=CN1C2=O [SG3199] + O=C(c1cc(Cc2n[nH]c(=O)c3ccccc23)ccc1F)N1CCN(C(=O)C2CC2)CC1 [Olaparib] (first compound max 0.001 µM, 7x7, partner max 10 µM) | -0.0122 | -0.0646 | -0.041 | -0.0113 | -0.018 | 0.0832 | 0.319 | 0.16 | 0.24 | 0.0761 | 0.266 | 0.0924 | 0.0914 | 0.0932 | 0.0868 | 0.196 | 0.166 | 0.0915 | 0.24 | 0.114
7 | N#Cc1cnc(Nc2cc(NC[C@H]3CNCCO3)c(C(F)(F)F)cn2)cn1 [SRA737] + C=CCn1c(=O)c2cnc(Nc3ccc(N4CCN(C)CC4)cc3)nc2n1-c1cccc(C(C)(C)O)n1 [AZD1775] (first compound max 10 µM, partner max 1 µM) | 0.0776 | 0.0566 | 0.119 | 0.154 | 0.0096 | 0.966 | 1 | 0.812 | 0.887 | 0.906 | 0.467 | 0.957 | 0.512 | 0.967 | 0.763 | 0.639 | 0.922 | 0.575 | 0.667 | 0.543
8 | N#Cc1cnc(Nc2cc(NC[C@H]3CNCCO3)c(C(F)(F)F)cn2)cn1 [SRA737] + CCc1c2c(nc3ccc(O)cc13)-c1cc3c(c(=O)n1C2)COC(=O)[C@]3(O)CC [SN-38] (first compound max 10 µM, 7x7, partner max 0.3 µM) | 0.0148 | 0.0241 | 0.157 | 0.0252 | 0.0777 | 0.999 | 0.994 | 0.832 | 0.906 | 0.94 | 0.769 | 0.954 | 0.631 | 0.967 | 0.8 | 0.768 | 0.714 | 0.823 | 0.609 | 0.57
9 | N#Cc1cnc(Nc2cc(NC[C@H]3CNCCO3)c(C(F)(F)F)cn2)cn1 [SRA737] + Nc1ccn([C@@H]2O[C@H](CO)[C@@H](O)C2(F)F)c(=O)n1 [Gemcitabine] (first compound max 10 µM, 7x7, partner max 0.3 µM) | 0.0707 | -0.0589 | 0.114 | 0.122 | 0.0556 | 0.998 | 1 | 0.813 | 0.862 | 0.83 | 0.746 | 0.867 | 0.477 | 0.974 | 0.665 | 0.691 | 0.861 | 0.734 | 0.436 | 0.597
10 | N#Cc1cnc(Nc2cc(NC[C@H]3CNCCO3)c(C(F)(F)F)cn2)cn1 [SRA737] + O=c1[nH]cc(F)c(=O)[nH]1 [5-Fluorouracil] (first compound max 10 µM, 7x7, partner max 20 µM) | 0.0529 | -0.0549 | -0.0348 | 0.0135 | -0.0456 | 0.996 | 0.994 | 0.542 | 0.778 | 0.379 | 0.566 | 0.606 | 0.405 | 0.882 | 0.631 | 0.585 | 0.693 | 0.35 | 0.428 | 0.474
11 | C[C@@H](c1ccc2nccn2c1)n1nnc2ncc(-c3cnn(C)c3)nc21 [Savolitinib] + CC1(C)CCC(CN2CCN(c3ccc(C(=O)NS(=O)(=O)c4ccc(NCC5CCOCC5)c([N+](=O)[O-])c4)c(Oc4cnc5[nH]ccc5c4)c3)CC2)=C(c2ccc(Cl)cc2)C1 [Venetoclax] (first compound max 1 µM, 7x7, partner max 1 µM) | -0.0121 | -0.0568 | -0.0471 | -0.0231 | -0.0797 | 0.169 | 0.86 | 0.237 | 0.129 | 0.0763 | 0.384 | 0.193 | 0.252 | 0.326 | 0.128 | 0.172 | 0.313 | 0.158 | 0.157 | 0.202
12 | C[C@@H](c1ccc2nccn2c1)n1nnc2ncc(-c3cnn(C)c3)nc21 [Savolitinib] + Cc1c2c(nn1C)CSCc1cc(n(C)n1)CSc1cc(c3ccccc3c1)OCCCc1c(C(=O)O)n(C)c3c-2c(Cl)ccc13 [AZD5991] (first compound max 1 µM, 7x7, partner max 1 µM) | 0.081 | -0.0486 | -0.0186 | -0.01 | -0.0571 | 0.936 | 1 | 0.276 | 0.179 | 0.115 | 0.275 | 0.143 | 0.233 | 1 | 0.108 | 0.196 | 0.214 | 0.366 | 0.203 | 0.165
